By inhibition is commonly meant the percentage by which the read-out fell short of the control. By IC50 is commonly meant the concentration that gives 50% inhibition.

The structures appear in SMILES notation. Calls of active or inactive are those of the source. No cut-off for these calls is given here.

Experimental findings from ChEMBL document CHEMBL5154636, “Discovery of STAT3 and Histone Deacetylase (HDAC) Dual-Pathway Inhibitors for the Treatment of Solid Cancer” (J Med Chem, 2021) are described below.

Test [1] concerns the target T1, Histone deacetylase 11 (Homo sapiens) (UniProt Q96DB2).
T1 sequence (whole entry): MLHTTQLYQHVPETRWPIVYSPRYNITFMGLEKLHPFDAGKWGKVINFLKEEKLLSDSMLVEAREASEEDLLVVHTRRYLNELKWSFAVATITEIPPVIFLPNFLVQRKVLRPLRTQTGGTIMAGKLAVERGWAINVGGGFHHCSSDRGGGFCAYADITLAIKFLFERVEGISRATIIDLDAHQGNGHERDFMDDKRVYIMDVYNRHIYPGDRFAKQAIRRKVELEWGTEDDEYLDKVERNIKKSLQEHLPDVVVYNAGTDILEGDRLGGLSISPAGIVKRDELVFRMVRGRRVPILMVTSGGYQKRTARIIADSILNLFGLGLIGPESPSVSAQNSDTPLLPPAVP
The experiment in a line: Inhibition of recombinant human HDAC11 at 10 uM using Boc-Lys(TFA)-AMC as substrate by fluorescence assay relative to control.

Test [2] concerns 4T1. Description: Antitumor activity against mouse 4T1 cells allografted in BALB/c mouse assessed as reduction in tumor weight at 30 mg/kg, ip qd for 21 days by vernier caliper method relative to control. In kind it is functional. Set-up: scale not given: the % may be the effect or the level left. The note with it: time 21 day.
The target of test [3] is T2, Protein deacetylase HDAC6 (Homo sapiens, UniProt Q9UBN7).
T2 sequence (Q9UBN7 whole entry): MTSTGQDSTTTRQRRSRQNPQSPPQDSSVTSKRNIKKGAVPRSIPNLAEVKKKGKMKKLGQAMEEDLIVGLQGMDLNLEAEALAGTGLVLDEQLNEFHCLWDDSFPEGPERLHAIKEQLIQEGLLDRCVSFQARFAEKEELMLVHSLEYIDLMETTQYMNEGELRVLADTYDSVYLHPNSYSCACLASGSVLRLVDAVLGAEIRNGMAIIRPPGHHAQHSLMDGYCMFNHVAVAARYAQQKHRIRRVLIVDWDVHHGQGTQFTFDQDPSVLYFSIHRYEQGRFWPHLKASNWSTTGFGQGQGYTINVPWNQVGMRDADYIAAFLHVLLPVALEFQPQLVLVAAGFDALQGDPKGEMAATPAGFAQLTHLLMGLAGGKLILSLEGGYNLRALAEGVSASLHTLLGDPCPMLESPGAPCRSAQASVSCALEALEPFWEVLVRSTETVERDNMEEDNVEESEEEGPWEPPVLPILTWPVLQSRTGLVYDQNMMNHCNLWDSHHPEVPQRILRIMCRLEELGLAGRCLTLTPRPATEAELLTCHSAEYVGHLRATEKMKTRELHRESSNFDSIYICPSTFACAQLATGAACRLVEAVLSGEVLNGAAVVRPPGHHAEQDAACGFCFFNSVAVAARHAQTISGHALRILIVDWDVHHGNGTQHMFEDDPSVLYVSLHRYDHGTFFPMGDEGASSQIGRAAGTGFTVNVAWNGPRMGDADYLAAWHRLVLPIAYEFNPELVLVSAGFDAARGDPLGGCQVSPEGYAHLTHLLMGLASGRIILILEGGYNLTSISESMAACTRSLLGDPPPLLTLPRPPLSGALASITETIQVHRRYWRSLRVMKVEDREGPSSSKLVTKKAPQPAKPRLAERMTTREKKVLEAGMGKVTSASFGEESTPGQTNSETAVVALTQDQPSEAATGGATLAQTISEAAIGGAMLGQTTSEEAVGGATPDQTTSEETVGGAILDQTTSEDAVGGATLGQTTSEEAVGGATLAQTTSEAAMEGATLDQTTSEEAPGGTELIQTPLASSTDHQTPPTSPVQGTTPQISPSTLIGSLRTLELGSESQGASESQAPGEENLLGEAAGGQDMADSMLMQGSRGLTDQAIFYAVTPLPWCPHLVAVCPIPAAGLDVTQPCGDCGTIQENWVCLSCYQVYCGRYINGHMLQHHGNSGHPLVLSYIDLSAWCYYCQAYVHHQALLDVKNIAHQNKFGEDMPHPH
Description: Inhibition of recombinant human HDAC6 using RHKK(Ac)AMC fluorogenic peptide as substrate by fluorescence assay.

The test system of test [4] is MDA-MB-231. Description: Cytotoxicity against human MDA-MB-231 cells assessed as reduction in cell viability incubated for 48 hrs by MTT assay. The note with it: MDA-MB-231, 48 h. In kind it is functional, cell-based.
Test [5] deals with T3, Signal transducer and activator of transcription 3 (Homo sapiens, UniProt P40763). Description: Inhibition of STAT3 in human MDA-MB-231 cells assessed as decrease in cyclin-D1 protein expression at 0.5 to 5 uM after 24 hrs by Western blot analysis. It counts as cell-based. The note with it: dose 0.5-5 µM.
Test [6] concerns MDA-MB-231. Description: Induction of apoptosis in human MDA-MB-231 cells assessed as early apoptotic cells at 5 uM incubated for 24 hrs by Annexin-V/FITC and PI staining based flow cytometry analysis (reference value: 1.4%). It counts as functional. A general note: A flow cytometer gives signals particle by particle.
Test [7] relates to MDA-MB-231. Description: Induction of apoptosis in human MDA-MB-231 cells assessed as necrotic cells at 2 uM incubated for 24 hrs by Annexin-V/FITC and PI staining based flow cytometry analysis (reference value: 0.0%). It counts as functional.
Test [8] deals with MDA-MB-231. Description: Antimigratory activity against human MDA-MB-231 cells assessed as inhibition of cell migration at 5 uM after 24 hrs by scratch wound healing assay based phase contrast microscopy analysis. In kind it is functional.
In test [9] the test system is MDA-MB-231. The experiment in a line: Induction of apoptosis in human MDA-MB-231 cells assessed as early apoptotic cells at 2 uM incubated for 24 hrs by Annexin-V/FITC and PI staining based flow cytometry analysis (reference value: 1.4%). In kind it is functional.
Test [10] relates to MDA-MB-231. Description: Induction of apoptosis in human MDA-MB-231 cells assessed as late apoptotic cells at 2 uM incubated for 24 hrs by Annexin-V/FITC and PI staining based flow cytometry analysis (reference value: 0.7%). In kind it is functional.
Test [11] has as its target T3, Signal transducer and activator of transcription 3. Description: Inhibition of STAT3 phosphorylation at Y705 residue in human MDA-MB-231 cells incubated for 24 hrs by Western blot assay. It counts as cell-based. The note with it: dose 0.5-5 µM. On the technique in general: Immunoblotting shows a protein as a band on a membrane.
For test [12], the target named is Histone deacetylase (Homo sapiens) (UniProt Q13547+O15379+Q9UBN7+Q92769+Q9UQL6+Q8WUI4+Q9BY41+Q96DB2+P56524+Q9UKV0+Q969S8). The experiment in a line: Inhibition of HDAC in human MDA-MB-231 cells assessed as increase in alpha tubulin acetylation incubated for 24 hrs by Western blot analysis. The note with it: dose 0.5-5 µM, DDE = dose-dependent effect. It counts as cell-based.

For test [13], the system named is MDA-MB-231. The experiment in a line: Induction of apoptosis in human MDA-MB-231 cells assessed as chromatinorrhexis at 0.5 to 5 uM incubated for 24 hrs by Hoechst 33258 staining based fluorescence microscopy analysis. It counts as functional, cell-based. The note with it: dose 0.5-5 µM.
Test [14] concerns the target Histone deacetylase 4 (Homo sapiens) (UniProt P56524). The experiment in a line: Inhibition of recombinant human HDAC4 at 10 uM using […] substrate by fluorescence assay relative to control.
In test [15] the target is T3, Signal transducer and activator of transcription 3. Description: Binding affinity to recombinant GST tagged STAT3 (unknown origin) assessed as dissociation constant.
Test [16] has as its system 4T1. Description: Antitumor activity against mouse 4T1 cells allografted in BALB/c mouse assessed as reduction in tumor volume at 30 mg/kg, ip qd for 21 days and measured every 3 days by vernier caliper method relative to control. It counts as functional. Also noted: scale not given: the % may be the effect or the level left. The note with it: time 21 day.
Test [17] concerns 4T1. Description: Antitumor activity against mouse 4T1 cells allografted in BALB/c mouse assessed as reduction in tumor volume at 15 mg/kg, ip qd for 21 days and measured every 3 days by vernier caliper method relative to control. In kind it is functional. Also noted: scale not given: the % may be the effect or the level left. The note with it: time 21 day.

T3 sequence (P40763 whole entry): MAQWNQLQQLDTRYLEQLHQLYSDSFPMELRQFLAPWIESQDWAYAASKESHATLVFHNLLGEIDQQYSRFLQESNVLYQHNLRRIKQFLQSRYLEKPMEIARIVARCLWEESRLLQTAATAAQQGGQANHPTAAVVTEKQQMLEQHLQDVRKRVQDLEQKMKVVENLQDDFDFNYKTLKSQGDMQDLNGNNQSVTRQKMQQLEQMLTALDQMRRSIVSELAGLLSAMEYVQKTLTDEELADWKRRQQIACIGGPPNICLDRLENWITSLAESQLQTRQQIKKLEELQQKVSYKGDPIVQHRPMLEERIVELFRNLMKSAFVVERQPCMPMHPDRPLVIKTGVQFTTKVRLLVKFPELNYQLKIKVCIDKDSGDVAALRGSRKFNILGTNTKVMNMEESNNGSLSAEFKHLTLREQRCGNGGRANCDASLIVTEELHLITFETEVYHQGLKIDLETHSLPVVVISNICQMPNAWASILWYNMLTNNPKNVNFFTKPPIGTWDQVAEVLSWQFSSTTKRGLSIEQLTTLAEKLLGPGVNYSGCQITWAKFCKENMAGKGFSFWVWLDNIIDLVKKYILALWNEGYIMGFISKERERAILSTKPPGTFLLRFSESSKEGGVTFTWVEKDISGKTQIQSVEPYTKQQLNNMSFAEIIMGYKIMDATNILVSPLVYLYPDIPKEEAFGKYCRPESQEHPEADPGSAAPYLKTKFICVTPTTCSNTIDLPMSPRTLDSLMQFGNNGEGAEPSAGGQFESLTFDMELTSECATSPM
Chain of Histone deacetylase 4 (Homo sapiens) (P56524 whole entry): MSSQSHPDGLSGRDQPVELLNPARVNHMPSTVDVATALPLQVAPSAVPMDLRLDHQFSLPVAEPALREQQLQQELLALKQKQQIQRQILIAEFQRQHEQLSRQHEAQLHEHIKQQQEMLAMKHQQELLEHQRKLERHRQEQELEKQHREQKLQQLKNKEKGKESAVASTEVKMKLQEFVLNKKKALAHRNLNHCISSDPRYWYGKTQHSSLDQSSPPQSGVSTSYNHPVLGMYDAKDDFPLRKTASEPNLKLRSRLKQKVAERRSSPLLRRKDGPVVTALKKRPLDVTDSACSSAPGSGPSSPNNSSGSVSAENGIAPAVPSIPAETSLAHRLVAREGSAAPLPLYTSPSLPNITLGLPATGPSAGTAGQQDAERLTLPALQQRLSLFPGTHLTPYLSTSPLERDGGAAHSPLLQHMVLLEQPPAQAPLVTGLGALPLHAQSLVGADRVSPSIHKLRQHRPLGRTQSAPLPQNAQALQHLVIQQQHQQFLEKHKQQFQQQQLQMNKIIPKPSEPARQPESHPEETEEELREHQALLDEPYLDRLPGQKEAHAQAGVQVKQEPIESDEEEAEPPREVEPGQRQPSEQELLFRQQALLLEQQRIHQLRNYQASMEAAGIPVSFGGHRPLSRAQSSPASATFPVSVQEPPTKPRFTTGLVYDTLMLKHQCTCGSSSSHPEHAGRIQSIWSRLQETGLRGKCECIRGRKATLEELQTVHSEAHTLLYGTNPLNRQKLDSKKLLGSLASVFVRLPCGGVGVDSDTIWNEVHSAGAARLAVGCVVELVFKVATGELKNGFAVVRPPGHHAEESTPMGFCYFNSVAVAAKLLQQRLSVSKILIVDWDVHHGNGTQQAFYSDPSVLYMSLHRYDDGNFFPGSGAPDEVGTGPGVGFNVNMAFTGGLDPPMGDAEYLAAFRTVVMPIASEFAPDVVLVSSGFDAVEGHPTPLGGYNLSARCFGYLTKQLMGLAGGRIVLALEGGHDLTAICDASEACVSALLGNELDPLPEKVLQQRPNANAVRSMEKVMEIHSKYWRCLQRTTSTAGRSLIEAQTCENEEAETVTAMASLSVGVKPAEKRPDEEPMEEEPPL

As to `COc1cc(/C=C/c2ccc(OCCCCCCC(=O)NO)cc2)cc(OC)c1`, the results for the inhibition in test [1] and in [14] were 37% and 12%, respectively. The Activity in test [2] is 62%; in test [6], 15.2%; in test [7] it was 0.1%; in test [9], 4.9%; in test [10] it was 5.7%; in [12] it was “Dde”. The Activity in test [16] is reported as 64%; in test [17], 54%. The IC50 in test [3] is 104 nM; in test [4], 780 nM. In addition, the inhibition entry in test [5] and in test [11] was “Active” throughout. Besides, the outcome in [8] and in test [13] was Active. The Kd in test [15] was found to be 0.01516 s⁻¹; in test [15] (read-out: Kd), 33.6 nM.
